Experimental data reported in US20250051277A1, “DELIVERY OF THERAPEUTIC ALKALOID COMPOUNDS” (Sensorium Therapeutics, Inc., priority 2021, published 2025).
Like-named read-outs stand apart in the source and are kept apart here.

Columns and labels:
[1] = Plasma Stability Assay of Example A3, mouse plasma; conditions: 5 μM, 37° C., % of prodrug compound remaining
[2] = 5 μM
[3] = Plasma Stability Assay of Example A3, human plasma; conditions: 5 μM, 37° C., % of prodrug compound remaining
[4] = type: physicochemical; conditions: DI water, 25° C., 0.5 mM
[5] = type: physicochemical; conditions: SGF with pepsin, pH 1.5, 37° C., 0.5 mM

Compound | Mouse Plasma Prodrug (%) ([1]; 0 min) | Mouse Plasma Prodrug (%) ([1]; 15 min) | Mouse Plasma Prodrug (%) ([1]; 30 min) | Mouse Plasma Prodrug (%) ([1]; 60 min) | Mouse Plasma Prodrug (%) ([1]; 120 min) | Mouse Plasma Prodrug (%) ([1]; 240 min) | Mouse Plasma Compound 001 (%) ([2]; 15 min) | Mouse Plasma Compound 001 (%) ([2]; 30 min) | Mouse Plasma Compound 001 (%) ([2]; 60 min) | Mouse Plasma Compound 001 (%) ([2]; 120 min) | Mouse Plasma Compound 001 (%) ([2]; 240 min) | Human Plasma Prodrug (%) ([3]; 0 min) | Human Plasma Prodrug (%) ([3]; 15 min) | Human Plasma Prodrug (%) ([3]; 30 min) | Human Plasma Prodrug (%) ([3]; 60 min) | Human Plasma Prodrug (%) ([3]; 120 min) | Human Plasma Prodrug (%) ([3]; 240 min) | Mouse Plasma Compound 001 (%) ([2]; 0 min) | other results
COc1ccc([C@@]23CCC(OC(=O)c4cccc(N(C)C)c4)=C[C@@H]2N(C)CC3)cc1OC [Compound 307, [(3aS,7aS)-3a-(3,4-dimethoxyphenyl)-1-methyl-3,4,5,7a-tetrahydro-2H-indol-6-yl]3-(dimethylamino)benzoate] | 100.0 | 18.1 | 3.8 | 0.1 | 0.0 | 0.0 | 73.4 | 81.1 | 86.3 | 79.9 | 79.0 | 100.0 | 88.5 | 87.6 | 83.0 | 71.1 | 57.5 | – | –
COc1ccc([C@@]23CCC(OC(=O)C(C)(C)C)=C[C@@H]2N(C)CC3)cc1OC [Compound 309, [(3aS,7aS)-3a-(3,4-dimethoxyphenyl)-1-methyl-3,4,5,7a-tetrahydro-2H-indol-6-yl]2,2-dimethylpropanoate] | 100.0 | 34.6 | 24.9 | 8.2 | 0.0 | 0.0 | 61.7 | 63.7 | 62.6 | 63.2 | 60.9 | 100.0 | 64.5 | 41.4 | 16.5 | 3.6 | 2.0 | – | Condition 2 Conversion (%) ([4]; time 1 min): 0%; Condition 2 Conversion (%) ([4]; time 5 min): 0%; Condition 2 Conversion (%) ([4]; time 30 min): 0%; Condition 2 Conversion (%) ([4]; time 1 h): 0%; Condition 2 Conversion (%) ([4]; time 4 h): 0%; Condition 2 Conversion (%) ([4]; time 24 h): 0%; Condition 1 Conversion (%) ([5]; time 1 min): 0%; Condition 1 Conversion (%) ([5]; time 5 min): 0%; Condition 1 Conversion (%) ([5]; time 30 min): 0%; Condition 1 Conversion (%) ([5]; time 1 h): 0%; Condition 1 Conversion (%) ([5]; time 4 h): 0%; Condition 1 Conversion (%) ([5]; time 24 h): 0%
COc1ccc([C@@]23CCC(OC(=O)c4ccc(F)cc4)=C[C@@H]2N(C)CC3)cc1OC [Compound 353, (3aS,7aS)-3a-(3,4-dimethoxyphenyl)-1-methyl-2,3,3a,4,5,7a-hexahydro-1H-indol-6-yl4-fluorobenzoate] | 100 | 0 | 0 | 0 | 0 | 0 | 55 | 51.6 | 50.6 | 46.4 | 29.3 | 100 | 95.4 | 90.1 | 79.7 | 55.3 | 39.6 | 47.7 | –
COc1ccc([C@@]23CCC(OC(=O)c4ccc(C#N)cc4)=C[C@@H]2N(C)CC3)cc1OC [Compound 354, (3aS,7aS)-3a-(3,4-dimethoxyphenyl)-1-methyl-2,3,3a,4,5,7a-hexahydro-1H-indol-6-yl4-cyanobenzoate] | 100 | 5 | 7 | 5 | 4 | 0 | 32.79 | 32.69 | 29.45 | 27.14 | 20.12 | 100 | 93 | 72 | 42 | 13 | 1 | 33.27 | –
COc1ccc([C@@]23CCC(OC(=O)c4cccc(C(C)(C)C)c4)=C[C@@H]2N(C)CC3)cc1OC [Compound 375, (3aS,7aS)-3a-(3,4-dimethoxyphenyl)-1-methyl-2,3,3a,4,5,7a-hexahydro-1H-indol-6-yl3-(tert-butyl)benzoate] | 100 | 11 | 2 | 0 | 0 | 0 | 45.54 | 45.99 | 41.28 | 42.28 | 29.74 | 100 | >99 | >99 | 97 | 57 | 26 | 41.82 | –
